Common to all, as to experiment: kinase binding constant, 11-point dose response (T7 phage, qPCR)
What all share (conditions): >30 = no inhibition at highest concentration tested
A general note: In qPCR the cycle at which signal appears reflects the starting amount.

One assay addresses T1, PRKCE (Homo sapiens, UniProt Q02156).
T1 sequence (Q02156 1-737): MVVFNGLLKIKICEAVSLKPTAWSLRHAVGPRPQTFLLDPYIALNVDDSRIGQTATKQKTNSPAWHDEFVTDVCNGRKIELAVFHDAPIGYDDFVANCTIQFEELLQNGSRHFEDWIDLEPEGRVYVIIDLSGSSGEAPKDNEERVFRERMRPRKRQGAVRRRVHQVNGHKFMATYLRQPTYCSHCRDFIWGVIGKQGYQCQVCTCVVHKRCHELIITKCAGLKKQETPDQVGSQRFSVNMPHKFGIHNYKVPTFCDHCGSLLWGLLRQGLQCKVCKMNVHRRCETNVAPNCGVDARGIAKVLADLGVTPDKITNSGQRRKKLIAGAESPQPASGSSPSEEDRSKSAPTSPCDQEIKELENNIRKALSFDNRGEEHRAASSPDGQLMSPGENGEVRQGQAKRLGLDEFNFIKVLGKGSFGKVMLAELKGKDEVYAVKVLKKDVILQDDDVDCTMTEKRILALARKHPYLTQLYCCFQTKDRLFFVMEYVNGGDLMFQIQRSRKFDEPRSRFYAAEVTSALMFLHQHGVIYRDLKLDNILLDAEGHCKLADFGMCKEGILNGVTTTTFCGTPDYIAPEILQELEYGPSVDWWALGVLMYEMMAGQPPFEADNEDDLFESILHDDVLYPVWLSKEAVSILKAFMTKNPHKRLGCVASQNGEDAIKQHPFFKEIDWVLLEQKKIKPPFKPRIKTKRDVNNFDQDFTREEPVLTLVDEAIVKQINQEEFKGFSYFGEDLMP
As for the experimental part: (§1) Kinase inhibition studies were performed by methods well known in the prior art (Fabian, M. A. et al. Nat. Biotechnol. 2005, 23, 329). Briefly, kinase-tagged T7 phage strains were prepared in an E. coli host derived from the BL21 strain. E. coli were grown to log-phase and infected with T7 phage and incubated with shaking at 32° C. until lysis. The lysates were centrifuged and filtered to remove cell debris. […] The liganded beads were blocked with excess biotin and washed with blocking buffer (SeaBlock (Pierce); 1% BSA, 0.05% Tween 20, 1 mM DTT) to remove unbound ligand and to reduce non-specific binding. […] All reactions were performed in polystyrene 96-well plates in a final volume of 0.135 ml. […] The kinase concentration in the eluates was measured by qPCR.
(§2) An 11-point 3-fold serial dilution of each test compound (from 30 μM to 0.5 nM) was prepared in 100% DMSO at 100× final test concentration and subsequently diluted to 1× in the assay (final DMSO concentration=1%). Binding constants (KDS) were calculated with a standard dose-response curve using a 5-point sigmoidal (Hill) equation.

For the next assay, the target named is DYRK1A (Homo sapiens, UniProt Q13627). As for the experimental part:
as §1, §2

Another assay deals with T2, YSK4 (Homo sapiens, UniProt Q56UN5).
T2 sequence (Q56UN5 1-1328): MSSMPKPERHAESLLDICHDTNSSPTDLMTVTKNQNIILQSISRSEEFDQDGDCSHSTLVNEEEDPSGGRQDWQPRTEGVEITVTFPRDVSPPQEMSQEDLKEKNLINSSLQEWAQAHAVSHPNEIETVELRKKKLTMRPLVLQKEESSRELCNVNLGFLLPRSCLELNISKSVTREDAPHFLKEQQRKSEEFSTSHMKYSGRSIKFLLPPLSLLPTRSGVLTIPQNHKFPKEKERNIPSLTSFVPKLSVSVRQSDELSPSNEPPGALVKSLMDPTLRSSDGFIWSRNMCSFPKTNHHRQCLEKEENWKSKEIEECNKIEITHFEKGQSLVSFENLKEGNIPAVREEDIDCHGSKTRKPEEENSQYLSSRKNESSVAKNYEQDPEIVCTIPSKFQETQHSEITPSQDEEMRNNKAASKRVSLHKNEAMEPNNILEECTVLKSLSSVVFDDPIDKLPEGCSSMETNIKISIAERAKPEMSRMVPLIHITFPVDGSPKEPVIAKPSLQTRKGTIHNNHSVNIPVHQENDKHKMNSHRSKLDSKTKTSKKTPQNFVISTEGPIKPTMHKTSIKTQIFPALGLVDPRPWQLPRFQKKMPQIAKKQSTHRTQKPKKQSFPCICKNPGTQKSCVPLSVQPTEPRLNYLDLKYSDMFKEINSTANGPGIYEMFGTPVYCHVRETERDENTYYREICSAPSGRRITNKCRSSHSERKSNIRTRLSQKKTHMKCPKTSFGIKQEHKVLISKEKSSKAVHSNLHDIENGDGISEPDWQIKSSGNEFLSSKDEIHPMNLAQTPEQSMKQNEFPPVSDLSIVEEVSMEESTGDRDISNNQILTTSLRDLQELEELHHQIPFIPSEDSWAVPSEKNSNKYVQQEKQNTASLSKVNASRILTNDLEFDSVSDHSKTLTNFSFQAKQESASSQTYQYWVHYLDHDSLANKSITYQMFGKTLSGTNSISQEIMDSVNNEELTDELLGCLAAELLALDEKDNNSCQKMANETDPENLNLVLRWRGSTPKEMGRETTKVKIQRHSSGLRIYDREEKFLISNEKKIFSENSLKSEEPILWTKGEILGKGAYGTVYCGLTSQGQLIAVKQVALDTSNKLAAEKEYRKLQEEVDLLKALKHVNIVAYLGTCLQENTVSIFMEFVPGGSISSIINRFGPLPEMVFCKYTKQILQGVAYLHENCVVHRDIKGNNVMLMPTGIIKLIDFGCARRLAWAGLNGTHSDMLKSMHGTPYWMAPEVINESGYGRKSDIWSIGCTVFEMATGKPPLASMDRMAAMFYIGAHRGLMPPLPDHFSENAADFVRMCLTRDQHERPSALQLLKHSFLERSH
The procedure: as §1, §2

As for `Nc1nc2c(-c3ccccn3)nccc2[nH]1` [drawing 35, 4-(pyrid-2-yl)-1H-imidazo[4,5-c]pyridin-2-amine], the Kd is greater than 30000 nM at PRKCE, 290 nM at DYRK1A and 220 nM at YSK4.
In the case of `Nc1nc2c(-c3cnc4ccccc4c3)nccc2[nH]1` [drawing 36, 4-(quinolin-3-yl)-1H-imidazo[4,5-c]pyridin-2-amine], binding at DYRK1A was characterised by a dissociation constant (Kd) of 300 nM.

A word on the Kd: it is the concentration at which binding is half-saturated. Lower therefore signals tighter binding.

Source of the values: patent US20110152313A1 (MACQUARIE UNIVERSITY, priority 2008, published 2011).
